Measured values from patent US20150238507A1, “BENZODIAZEPINES FOR TREATING SMALL CELL LUNG CANCER” (GlaxoSmithKline LLC, priority 2012, published 2015).
pIC50: −log10 of the molar value. Where two headings read alike, the source gives them in different places.

How the values were obtained:
[1] = test system: small cell lung cancer lines; test: 6 day proliferation (cell growth) assay, panel of 38 small cell lung cancer lines; assay type: cell-based; conditions: 6 day proliferation assay; for pIC50: 144 h
[2] = test system: NCI-H526 cell line xenograft; test: SCLC subcutaneous mouse xenograft model, efficacy and pharmacodynamics; assay type: in vivo; conditions: 25 mg/kg QD

- pIC50 ([1]; median of 38 small cell lung cancer lines, read-out: gIC50 (median over the panel)): 5.84
- pIC50 ([1]; panel of 38 small cell lung cancer lines, read-out: gIC50 (range over the panel)): 4.53 to 6.96
Structure (SMILES): CCNC(=O)C[C@@H]1N=C(c2ccc(Cl)cc2)c2cc(OC)ccc2-n2c(C)nnc21 [2-[(4S)-6-(4-chlorophenyl)-1-methyl-8-(methyloxy)-4H-[1,2,4]triazolo[4,3-a][1,4]benzodiazepin-4-yl]-N-ethylacetamide]
- number of lines showing gIC50<10000 nM ([1]; of the 38 small cell lung cancer lines): 33
- reduction of tumour growth ([2]; NCI-H526 subcutaneous mouse xenograft): 70%
- p21 protein expression and caspase activation in tumour ([2]; NCI-H526 xenograft, antibody-based immunochemistry assay): induce p21 protein expression and caspase activation
